Data taken from patent US11053213B2, “Pharmaceutical compounds” (ALMAC DISCOVERY LIMITED, priority 2016, dated 2021).

biological target: USP19 (Homo sapiens (Human), UniProt O94966); test: USP19 activity assay (fluorescence polarisation, Ubiquitin-Lys-TAMRA substrate); type: biochemical; conditions: full-length USP19 2.5 nM, 30 min pre-incubation, Ub substrate 500 nM; average of at least two duplicate experiments
Sequence (O94966 whole entry): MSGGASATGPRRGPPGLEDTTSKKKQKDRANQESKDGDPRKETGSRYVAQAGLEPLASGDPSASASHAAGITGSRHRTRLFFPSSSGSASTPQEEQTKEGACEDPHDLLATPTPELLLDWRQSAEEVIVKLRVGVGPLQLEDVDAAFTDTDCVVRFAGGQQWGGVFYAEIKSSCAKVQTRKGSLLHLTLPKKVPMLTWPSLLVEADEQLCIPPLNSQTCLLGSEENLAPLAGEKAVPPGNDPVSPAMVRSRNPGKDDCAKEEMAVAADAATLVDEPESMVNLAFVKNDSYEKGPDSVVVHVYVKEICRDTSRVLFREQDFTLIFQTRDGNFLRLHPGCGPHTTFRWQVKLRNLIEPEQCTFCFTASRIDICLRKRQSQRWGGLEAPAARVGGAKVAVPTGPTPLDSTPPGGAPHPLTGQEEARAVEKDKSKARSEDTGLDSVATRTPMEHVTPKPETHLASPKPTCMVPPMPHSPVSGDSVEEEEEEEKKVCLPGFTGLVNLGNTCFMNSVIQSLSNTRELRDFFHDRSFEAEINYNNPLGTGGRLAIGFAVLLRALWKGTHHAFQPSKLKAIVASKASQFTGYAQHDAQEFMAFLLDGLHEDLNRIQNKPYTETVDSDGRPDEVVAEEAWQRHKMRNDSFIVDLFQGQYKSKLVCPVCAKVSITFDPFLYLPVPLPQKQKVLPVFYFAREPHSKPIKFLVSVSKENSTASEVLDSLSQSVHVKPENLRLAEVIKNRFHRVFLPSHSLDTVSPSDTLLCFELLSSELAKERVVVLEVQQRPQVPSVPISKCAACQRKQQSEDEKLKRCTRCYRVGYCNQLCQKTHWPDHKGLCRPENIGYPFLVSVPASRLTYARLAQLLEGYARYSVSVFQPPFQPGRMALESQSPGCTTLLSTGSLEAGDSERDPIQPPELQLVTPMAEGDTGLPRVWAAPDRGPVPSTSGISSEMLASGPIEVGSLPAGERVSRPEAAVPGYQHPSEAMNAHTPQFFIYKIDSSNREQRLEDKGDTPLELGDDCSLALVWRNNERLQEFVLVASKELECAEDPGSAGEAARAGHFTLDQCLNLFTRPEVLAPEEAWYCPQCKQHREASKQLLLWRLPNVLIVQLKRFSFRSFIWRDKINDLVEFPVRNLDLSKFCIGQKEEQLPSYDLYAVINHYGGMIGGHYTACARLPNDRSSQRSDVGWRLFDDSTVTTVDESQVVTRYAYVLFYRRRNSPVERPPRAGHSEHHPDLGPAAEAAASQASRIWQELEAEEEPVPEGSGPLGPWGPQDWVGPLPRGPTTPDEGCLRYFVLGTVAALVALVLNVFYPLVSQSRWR

Structure (SMILES)	IC50
C[C@H](CC(F)(F)F)C(=O)N1CC[C@@](O)(Cn2cc(C(=O)N(C)C)c(-c3ccccc3)cc2=O)C(C)(C)C1 [Example 204, 1-(((S)-4-Hydroxy-3,3-dimethyl-1-((R)-4,4,4-trifluoro-2-methylbutanoyl)piperidin-4-yl)methyl)-N,N-dimethyl-6-oxo-4-phenyl-1,6-dihydropyridine-3-carboxamide]	500 to 5000 nM
CN(C)C(=O)c1cn(C[C@]2(O)CCN(C(=O)C(CC(F)(F)F)CC(F)(F)F)CC2(C)C)c(=O)cc1-c1ccccc1 [Example 207, (S)-1-((4-Hydroxy-3,3-dimethyl-1-(4,4,4-trifluoro-2-(2,2,2-trifluoroethyl)butanoyl)piperidin-4-yl)methyl)-N,N-dimethyl-6-oxo-4-phenyl-1,6-dihydropyridine-3-carboxamide]	5000 to 50000 nM
C[C@H](CC1CCCCC1)C(=O)N1CC[C@](O)(Cn2cc(C(=O)N(C)C)c(-c3ccccc3)cc2=O)C2(CCCC2)C1 [Example 209, 1-(((R)-7-((R)-3-Cyclohexyl-2-methylpropanoyl)-10-hydroxy-7-azaspiro[4.5]decan-10-yl)methyl)-N,N-dimethyl-6-oxo-4-phenyl-1,6-dihydropyridine-3-carboxamide]	5000 to 50000 nM
C[C@H](CC1CCCCC1)C(=O)N1CC[C@](O)(Cn2cc(C(=O)N3CCNCC3)c(-c3ccccc3)cc2=O)C2(CCCC2)C1 [Example 210, 1-(((R)-7-((R)-3-Cyclohexyl-2-methylpropanoyl)-10-hydroxy-7-azaspiro[4.5]decan-10-yl)methyl)-4-phenyl-5-(piperazine-1-carbonyl)pyridin-2(1H)-one]	5000 to 50000 nM
CN(C)C(=O)c1cn(C[C@]2(O)CCN(C(=O)C(CC(F)(F)F)CC(F)(F)F)CC23CCCC3)c(=O)cc1-c1ccccc1 [Example 218, (S)-1-((10-Hydroxy-7-(4,4,4-trifluoro-2-(2,2,2-trifluoroethyl)butanoyl)-7-azaspiro[4.5]decan-10-yl)methyl)-N,N-dimethyl-6-oxo-4-phenyl-1,6-dihydropyridine-3-carboxamide]	500 to 5000 nM
O=C(c1cn(C[C@]2(O)CCN(C(=O)C(CC(F)(F)F)CC(F)(F)F)CC23CCCC3)c(=O)cc1-c1ccccc1)N1CCNCC1 [Example 219, (S)-1-((10-Hydroxy-7-(4,4,4-trifluoro-2-(2,2,2-trifluoroethyl)butanoyl)-7-azaspiro[4.5]decan-10-yl)methyl)-4-phenyl-5-(piperazine-1-carbonyl)pyridin-2(1H)-one]	500 to 5000 nM
C[C@H](CC1CCCCC1)C(=O)N1CC[C@@](O)(Cn2cc(C(=O)N(C)C)c(C3CC3)cc2=O)C(C)(C)C1 [Example 220, 1-(((S)-1-((R)-3-Cyclohexyl-2-methylpropanoyl)-4-hydroxy-3,3-dimethylpiperidin-4-yl)methyl)-4-cyclopropyl-N,N-dimethyl-6-oxo-1,6-dihydropyridine-3-carboxamide]	500 to 5000 nM
C[C@H](CC1CCCCC1)C(=O)N1CC[C@@](O)(Cn2cc(C(=O)N3CCNCC3)c(C3CC3)cc2=O)C(C)(C)C1 [Example 221, 1-(((S)-1-((R)-3-Cyclohexyl-2-methylpropanoyl)-4-hydroxy-3,3-dimethylpiperidin-4-yl)methyl)-4-cyclopropyl-5-(piperazine-1-carbonyl)pyridin-2(1H)-one]	500 to 5000 nM
C[C@H](CC(F)(F)F)C(=O)N1CC[C@@](O)(Cn2cc(C(=O)N(C)C)c(-c3ccccc3F)cc2=O)C2(CCCC2)C1 [Example 223, 4-(2-Fluorophenyl)-1-(((S)-10-hydroxy-7-((R)-4,4,4-trifluoro-2-methylbutanoyl)-7-azaspiro[4.5]decan-10-yl)methyl)-N,N-dimethyl-6-oxo-1,6-dihydropyridine-3-carboxamide]	500 to 5000 nM
C[C@H](CC(F)(F)F)C(=O)N1CC[C@@](O)(Cn2cc(C(=O)N3CCNCC3)c(-c3ccccc3F)cc2=O)C2(CCCC2)C1 [Example 225, 4-(2-Fluorophenyl)-1-(((S)-10-hydroxy-7-((R)-4,4,4-trifluoro-2-methylbutanoyl)-7-azaspiro[4.5]decan-10-yl)methyl)-5-(piperazine-1-carbonyl)pyridin-2(1H)-one]	500 to 5000 nM
C[C@H](CC1CCCCC1)C(=O)N1CC[C@@](O)(Cn2cc(C(=O)N3CCNCC3)c(-c3ccccc3F)cc2=O)C2(CCCC2)C1 [Example 227, 1-(((S)-7-((R)-3-Cyclohexyl-2-methylpropanoyl)-10-hydroxy-7-azaspiro[4.5]decan-10-yl)methyl)-4-(2-fluorophenyl)-5-(piperazine-1-carbonyl)pyridin-2(1H)-one]	< 500 nM
C[C@H](CC1CCCCC1)C(=O)N1CC[C@@](O)(Cn2cc(C(=O)N3CCC(O)CC3)c(-c3ccccc3)cc2=O)C(C)(C)C1 [Example 228, 1-(((S)-1-((R)-3-Cyclohexyl-2-methylpropanoyl)-4-hydroxy-3,3-dimethylpiperidin-4-yl)methyl)-5-(4-hydroxypiperidine-1-carbonyl)-4-phenylpyridin-2(1H)-one]	< 500 nM

The next lines start with the values.

IC50	Structure (SMILES)
< 500 nM	C[C@H](CC1CCCCC1)C(=O)N1CC[C@@](O)(Cn2cc(C(=O)N(C)C)c(-c3ccccc3F)cc2=O)C(C)(C)C1 [Example 205, 1-(((S)-1-((R)-3-Cyclohexyl-2-methylpropanoyl)-4-hydroxy-3,3-dimethylpiperidin-4-yl)methyl)-4-(2-fluorophenyl)-N,N-dimethyl-6-oxo-1,6-dihydropyridine-3-carboxamide]
< 500 nM	C[C@H](CC1CCCCC1)C(=O)N1CC[C@@](O)(Cn2cc(C(=O)N3CCNCC3)c(-c3ccccc3F)cc2=O)C(C)(C)C1 [Example 206, 1-(((S)-1-((R)-3-Cyclohexyl-2-methylpropanoyl)-4-hydroxy-3,3-dimethylpiperidin-4-yl)methyl)-4-(2-fluorophenyl)-5-(piperazine-1-carbonyl)pyridin-2(1H)-one]
< 500 nM	C[C@H](CC1CCCCC1)C(=O)N1CC[C@@](O)(Cn2cc(C(=O)N3CCNC[C@H]3CO)c(-c3ccccc3)cc2=O)C(C)(C)C1 [Example 208, 1-(((S)-1-((R)-3-Cyclohexyl-2-methylpropanoyl)-4-hydroxy-3,3-dimethylpiperidin-4-yl)methyl)-5-((S)-2-(hydroxymethyl)piperazine-1-carbonyl)-4-phenylpyridin-2(1H)-one]
< 500 nM	C[C@H](CC1CCCCC1)C(=O)N1CC[C@@](O)(Cn2cc(C(=O)N(C)C)c(-c3ccccc3)cc2=O)C2(CCCC2)C1 [Example 211, 1-(((S)-7-((R)-3-Cyclohexyl-2-methylpropanoyl)-10-hydroxy-7-azaspiro[4.5]decan-10-yl)methyl)-N,N-dimethyl-6-oxo-4-phenyl-1,6-dihydropyridine-3-carboxamide]
< 500 nM	C[C@H](CC1CCCCC1)C(=O)N1CC[C@@](O)(Cn2cc(C(=O)N3CCNCC3)c(-c3ccccc3)cc2=O)C2(CCCC2)C1 [Example 212, 1-(((S)-7-((R)-3-Cyclohexyl-2-methylpropanoyl)-10-hydroxy-7-azaspiro[4.5]decan-10-yl)methyl)-4-phenyl-5-(piperazine-1-carbonyl)pyridin-2(1H)-one]
< 500 nM	C[C@@H]1CN(C(=O)c2cn(C[C@]3(O)CCN(C(=O)[C@H](C)CC4CCCCC4)CC3(C)C)c(=O)cc2-c2ccccc2)CCN1 [Example 213, 1-(((S)-1-((R)-3-Cyclohexyl-2-methylpropanoyl)-4-hydroxy-3,3-dimethylpiperidin-4-yl)methyl)-5-((R)-3-methylpiperazine-1-carbonyl)-4-phenylpyridin-2(1H)-one]
< 500 nM	C[C@H](CC1CCC1)C(=O)N1CC[C@@](O)(Cn2cc(C(=O)N(C)C)c(-c3ccccc3)cc2=O)C2(CCCC2)C1 [Example 214, 1-(((S)-7-((R)-3-Cyclobutyl-2-methylpropanoyl)-10-hydroxy-7-azaspiro[4.5]decan-10-yl)methyl)-N,N-dimethyl-6-oxo-4-phenyl-1,6-dihydropyridine-3-carboxamide]
< 500 nM	C[C@H](CC1CCC1)C(=O)N1CC[C@@](O)(Cn2cc(C(=O)N3CCNCC3)c(-c3ccccc3)cc2=O)C2(CCCC2)C1 [Example 215, 1-(((S)-7-((R)-3-Cyclobutyl-2-methylpropanoyl)-10-hydroxy-7-azaspiro[4.5]decan-10-yl)methyl)-4-phenyl-5-(piperazine-1-carbonyl)pyridin-2(1H)-one]
< 500 nM	C[C@H](CC(F)(F)F)C(=O)N1CC[C@@](O)(Cn2cc(C(=O)N(C)C)c(-c3ccccc3)cc2=O)C2(CCCC2)C1 [Example 216, 1-(((S)-10-Hydroxy-7-((R)-4,4,4-trifluoro-2-methylbutanoyl)-7-azaspiro[4.5]decan-10-yl)methyl)-N,N-dimethyl-6-oxo-4-phenyl-1,6-dihydropyridine-3-carboxamide]
< 500 nM	C[C@H](CC(F)(F)F)C(=O)N1CC[C@@](O)(Cn2cc(C(=O)N3CCNCC3)c(-c3ccccc3)cc2=O)C2(CCCC2)C1 [Example 217, 1-(((S)-10-Hydroxy-7-((R)-4,4,4-trifluoro-2-methylbutanoyl)-7-azaspiro[4.5]decan-10-yl)methyl)-4-phenyl-5-(piperazine-1-carbonyl)pyridin-2(1H)-one]
< 500 nM	C[C@H](CC1CCC1)C(=O)N1CC[C@@](O)(Cn2cc(C(=O)N(C)C)c(-c3ccccc3F)cc2=O)C2(CCCC2)C1 [Example 222, 1-(((S)-7-((R)-3-Cyclobutyl-2-methylpropanoyl)-10-hydroxy-7-azaspiro[4.5]decan-10-yl)methyl)-4-(2-fluorophenyl)-N,N-dimethyl-6-oxo-1,6-dihydropyridine-3-carboxamide]
< 500 nM	C[C@H](CC1CCC1)C(=O)N1CC[C@@](O)(Cn2cc(C(=O)N3CCNCC3)c(-c3ccccc3F)cc2=O)C2(CCCC2)C1 [Example 224, 1-(((S)-7-((R)-3-Cyclobutyl-2-methylpropanoyl)-10-hydroxy-7-azaspiro[4.5]decan-10-yl)methyl)-4-(2-fluorophenyl)-5-(piperazine-1-carbonyl)pyridin-2(1H)-one]
< 500 nM	C[C@H](CC1CCCCC1)C(=O)N1CC[C@@](O)(Cn2cc(C(=O)N(C)C)c(-c3ccccc3F)cc2=O)C2(CCCC2)C1 [Example 226, 1-(((S)-7-((R)-3-Cyclohexyl-2-methylpropanoyl)-10-hydroxy-7-azaspiro[4.5]decan-10-yl)methyl)-4-(2-fluorophenyl)-N,N-dimethyl-6-oxo-1,6-dihydropyridine-3-carboxamide]
